Data published in patent US20100260697A1, “Composition Containing An Extract of the Fruit of Schisandra Chinensis and Process for Producing Same” (COGNIS FRANCE S.A.S., priority 2003, published 2010).
Several values for one entry are separate records, joined by “and”; a condition that tells them apart may be missing. Equal values may be shown once.

What was measured:
melanocytes B16 = assay: Inhibition of melanin synthesis; whitening activity on melanocytes B16; type: cell-based; settings: for Melanin / Proteins: % against control, 3 days
Experimental: The whitening activity of the extract was evaluated on a cell line of melanocytes (melanocytes B16 were used; this is a cell line known to the skilled person in the art). The melanocytes were exposed to the extract for 3 days at 37° C. and then the melanocytes were homogenised in 1 n NaOH and the level of melanin was evaluated by measuring the optical density at 475 nm. The level of proteins in the cells was determined by Bradford's method.
The results are expressed in % refering of the control and the whitening potential is characterised by the ratio of melanin level by the protein level (or melanin/protein) for a non toxic concentration of the tested compound.

human fibroblasts = assay: Protection of human fibroblasts against UV-A radiation (released MDA, cellular proteins); type: cell-based; settings: % versus non-irradiated control; UV-A 20 J/cm2; dose 0.0003 % w/v
Experimental: The aim of this test is to evaluate the capacities against oxidative stress of the extract by a test on a cell culture of human fibroblasts in vitro. This test in vitro evaluates the capacities of cytophotoprotection of human fibroblasts against UV-A radiation. […] The formed lipoperoxydes split in malondialdehyde responsible of the reticulation of many biological molecules such as proteins (inhibition of enzymes) and nucleic bases (mutagenesis).
The fibroblasts were seeded in a defined culture medium with foetal calf serum (FCS). […] At the end of the irradiation, the level of MDA (malondialdehyde) was measured in the supernatant by a chemical reaction of MDA with thiobarbituric acid which produces a coloured compound the concentration of which was determined by measuring optical density and the level of proteins was measured in the cell homogenate by Bradford's method. Bradford's method is a known method to quantify the level of proteins (Bradford M M., A rapid and sensitive method for the quantification of microgram quantities of protein utilizing the principle of protein-dye binding. Anal. Biochem., Vol 72, pages 248 to 254, 1976).
The results are expressed as % versus the irradiated control or MDA, and the non-irradiated control for proteins then as an average value of 2 tests in triplicate: […]

Question: Which results are given for `OC[C@H]1O[C@@H](Oc2ccc(O)cc2)[C@H](O)[C@@H](O)[C@@H]1O` [Arbutin]?
Answer: Melanin (melanocytes B16; dose 0.2 % w/v): 54%; Proteins (melanocytes B16; dose 0.2 % w/v): 86%; Index = Proteins/Melanin (melanocytes B16; dose 0.2 % w/v): 1.60

Question: Which results are given for `O=c1cc(CO)occ1O` [Kojic acid]?
Answer: Melanin (melanocytes B16; dose 0.03 % w/v): 26%; Proteins (melanocytes B16; dose 0.03 % w/v): 89%; Index = Proteins/Melanin (melanocytes B16; dose 0.03 % w/v): 3.37

Question: How did the “Cellular Proteins” value (human fibroblasts) turn out when vitamin E was run?
Answer: 110% and 96%
